Entries after “also recorded” stand apart in the source; their conditions may differ. Where a SMILES comes first, the peptide text is derived from it.
How the values were obtained:
Assay type in all cases: cell-based
[1] = target: sodium channel in CNaIIA cells (Rattus norvegicus, UniProt P04775); experiment: Blocking of the sodium channel in CNaIIA cells by IFM-amide during repetitive stimulation; conditions: for dependence of inhibition of sodium channels / sodium channel blocking: repetitive stimulation; for sodium channel blocking: FIGS. 7 and 8
Chain of sodium channel in CNaIIA cells (P04775 whole entry): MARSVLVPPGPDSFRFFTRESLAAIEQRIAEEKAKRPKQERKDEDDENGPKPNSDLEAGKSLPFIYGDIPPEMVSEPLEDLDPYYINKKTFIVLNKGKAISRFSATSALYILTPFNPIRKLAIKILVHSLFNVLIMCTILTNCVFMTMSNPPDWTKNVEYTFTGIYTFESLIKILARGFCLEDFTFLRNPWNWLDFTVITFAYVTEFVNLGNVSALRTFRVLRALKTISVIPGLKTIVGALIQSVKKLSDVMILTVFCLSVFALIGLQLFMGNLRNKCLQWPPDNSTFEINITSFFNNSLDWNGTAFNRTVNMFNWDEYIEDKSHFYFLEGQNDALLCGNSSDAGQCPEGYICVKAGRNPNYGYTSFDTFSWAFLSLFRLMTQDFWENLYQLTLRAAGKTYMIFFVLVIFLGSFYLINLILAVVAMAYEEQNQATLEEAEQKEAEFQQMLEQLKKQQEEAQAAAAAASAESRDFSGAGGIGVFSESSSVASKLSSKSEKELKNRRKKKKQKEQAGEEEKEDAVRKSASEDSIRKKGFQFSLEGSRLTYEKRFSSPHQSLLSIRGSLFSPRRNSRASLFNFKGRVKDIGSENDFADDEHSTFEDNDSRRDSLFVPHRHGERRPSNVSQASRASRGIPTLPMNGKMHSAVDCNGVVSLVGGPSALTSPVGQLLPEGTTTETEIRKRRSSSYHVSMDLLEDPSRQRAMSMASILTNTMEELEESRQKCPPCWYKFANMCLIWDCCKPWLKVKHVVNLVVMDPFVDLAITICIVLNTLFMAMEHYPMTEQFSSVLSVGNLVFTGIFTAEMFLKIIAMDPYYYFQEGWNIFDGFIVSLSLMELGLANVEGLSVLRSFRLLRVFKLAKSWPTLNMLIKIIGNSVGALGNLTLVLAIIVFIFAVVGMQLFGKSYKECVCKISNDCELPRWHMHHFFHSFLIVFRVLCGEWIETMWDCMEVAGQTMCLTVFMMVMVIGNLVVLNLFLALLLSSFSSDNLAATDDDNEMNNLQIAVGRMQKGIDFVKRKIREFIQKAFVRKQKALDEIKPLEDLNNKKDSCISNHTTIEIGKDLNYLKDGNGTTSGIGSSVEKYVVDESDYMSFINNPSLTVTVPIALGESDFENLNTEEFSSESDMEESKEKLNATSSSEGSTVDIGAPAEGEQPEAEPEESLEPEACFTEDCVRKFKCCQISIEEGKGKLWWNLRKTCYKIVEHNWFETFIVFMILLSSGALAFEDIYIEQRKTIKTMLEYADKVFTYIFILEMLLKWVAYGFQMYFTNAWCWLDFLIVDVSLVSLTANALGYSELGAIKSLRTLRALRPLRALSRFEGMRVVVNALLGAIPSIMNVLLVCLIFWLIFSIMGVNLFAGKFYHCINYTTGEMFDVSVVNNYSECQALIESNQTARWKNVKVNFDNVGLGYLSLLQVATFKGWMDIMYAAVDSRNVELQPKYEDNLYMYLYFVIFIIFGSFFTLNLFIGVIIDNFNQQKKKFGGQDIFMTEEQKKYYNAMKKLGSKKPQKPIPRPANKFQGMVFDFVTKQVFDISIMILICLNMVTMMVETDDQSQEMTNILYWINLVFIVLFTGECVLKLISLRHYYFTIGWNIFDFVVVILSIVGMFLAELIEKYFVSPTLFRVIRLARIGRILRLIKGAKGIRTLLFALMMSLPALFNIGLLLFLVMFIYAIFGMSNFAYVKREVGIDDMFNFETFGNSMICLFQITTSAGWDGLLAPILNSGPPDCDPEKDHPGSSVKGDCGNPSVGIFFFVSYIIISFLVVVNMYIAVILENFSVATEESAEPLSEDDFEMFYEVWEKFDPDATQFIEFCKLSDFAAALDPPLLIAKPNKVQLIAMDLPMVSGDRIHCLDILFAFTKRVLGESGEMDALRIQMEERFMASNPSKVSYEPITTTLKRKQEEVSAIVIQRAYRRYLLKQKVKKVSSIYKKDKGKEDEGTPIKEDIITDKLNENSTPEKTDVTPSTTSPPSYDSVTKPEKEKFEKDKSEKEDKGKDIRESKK
Description: It was reasoned that a tripeptide IFM-amide could be an effective inactivation gate peptide since it contains both the critical IFM residues and the charge of the unblocked α-amino group in the isoleucine residue. […] During repetitive stimulation, increased inhibition is observed with each succeeding pulse (pulse #) until a steady state is reached (FIG. 7). The degree of inhibition at steady state is dependent on the frequency of the stimulation pulses (% Ipulse #1; FIG. 7) and on the voltage of the stimulating pulses (FIG. 8). […] This implies that IFM amide has greater intrinsic affinity for the receptor site that blocks the sodium channel.

[2] = target: wild-type Type IIA sodium channels (Rattus norvegicus, UniProt P04775); experiment: Voltage- and frequency-dependent block of sodium channels, sodium currents recorded in CNaIIA-1 cells; conditions: for block of rapidly cycling type IIA sodium channels over the entire voltage range: 10 Hz voltage pulses, -50 to +100 mV
Chain of wild-type Type IIA sodium channels (P04775 whole entry): as above
Experimental: (§1) Experiments were performed on wild-type Type IIA sodium channels stably transfected into Chinese hamster ovary (CHO) cells (CNalIA-1; as described in citation 23, which is incorporated herein by reference) and mutant (F1489Q) sodium channels transiently transfected into human kidney carcinoma cells (as described in citations 24 and 25, which are incorporated herein by reference).
The effects of the KIFMK gate peptide on sodium channels was tested by backfilling an electrode with a recording solution containing 1 mM peptide after loading the tip of the electrode with a buffer of peptide-free solution (i.e., to enhance seal formation when the electrode was inserted into a cell). After forming a high-resistance seal and breaking through the cell membrane, the peptide rapidly diffused into the cell and caused the appearance of tail currents (see below) within 10 minutes. When stabilized, sodium currents were recorded in the cells before and after a series of 10 Hz voltage pulses that varied over the range -50 to +100 mV. Parallel control experiments were conducted in which electrodes were not backfilled with peptides. The magnitude of the sodium currents in the experimental and control preparations were compared.
As a control, a KIQMK peptide was prepared to mimic the sequence present in mutant F 1489Q sodium channels.

[3] = test system: mutant F1489Q sodium channels; experiment: Restoration of inactivation in mutant sodium channels transiently expressed in TSQ-201 cells; conditions: for inactivation of mutant (F1489Q) sodium channels: peptide perfused at 1 mM into TSQ-201 cells, FIG. 4
Experimental: as §1
Mutant F1489Q sodium channels were transiently expressed in TSQ-201 cells (24). The mutant channels in the cells activated normally but inactivated very slowly. […] The time course of inactivation for the mutant channels was dramatically slowed over the entire voltage range. Having established the properties of the test cells and mutant channels, the peptides KIFMK and KIQMK were next tested. KIFMK or KIQMK were perfused (at a concentration of 1 mM) into the TSQ-201 cells expressing the mutant (F1489Q) sodium channels.

[4] = target: Wild-type IIA sodium channels (Rattus norvegicus, UniProt P04775); experiment: Competition with the normal inactivation process: tail currents by whole-cell voltage clamp; conditions: cell perfused with peptide; for macroscopic sodium current elicited by depolarizing test pulse to 0 mV: versus controls; for tail currents elicited by repolarization pulse: from 0 to -80 mV, FIG. 5
Chain of Wild-type IIA sodium channels (P04775 whole entry, the tested form may be a part): as the sequence (P04775 whole entry) above
Description: Considering binding of KIFMK inactivation gate peptide to putative inactivation gate receptor site(s) in the intracellular mouth of the sodium channel, peptide binding might prevent channel closure by the natural inactivation gate due to steric hindrance. In this model, closure of the inactivation gate would be prevented by the drug and after depolarization-induced opening, repolarization should cause the peptide to dissociate from the channel, leaving the channel open for a "brief period" of time before closure and inactivation can block the channel. The existence of the "brief period" of channel opening was captured and recorded as a rising component of tail current in the following experiments.
Wild-type IIA sodium channels were recorded using a whole-cell voltage clamp method. Under the recording conditions used, the sodium channels have tail currents upon rapid repolarization that declined exponentially without a rising phase because the channel rapidly closes upon repolarization (FIG. 5A). The magnitude of the tail currents decreases as the duration of the test pulse is increased. Repetitive pulsing created a family of tail current recordings that decreased exponentially (from a starting level near that of the sodium current), without any rising component in the recorded curves (FIG. 5A). […] The amplitude of the rising component of the latter tail currents decreased with increasing pulse duration as the macroscopic sodium current decreased.

[5] = target: scorpion-toxin modified wild-type sodium channels (Rattus norvegicus, UniProt P04775); experiment: Inactivation in scorpion-toxin modified wild-type sodium channels in CNaIIA-1 cells; conditions: 100 nM LqTx in bath; test voltage to 0 mV; FIG. 6
Chain of scorpion-toxin modified wild-type sodium channels (P04775 whole entry): as above
Description: Externally applied alpha-scorpion toxins slow sodium channel inactivation without affecting activation (reviewed in 26). Sodium currents in stably transfected CNaIIA-1 cells respond to a depolarizing test voltage to 0 mV with rapid activation and inactivation of the sodium channel. […] KIQMK, on the other hand, had no effect (FIG. 6).

Na+ channels = experiment: Structural specificity: ability of peptides to block sodium channels and restore fast inactivation; conditions: qualitative summary; methods similar to Examples 1-4
Description: The results of these experiments are summarized qualitatively below.

With CC[C@H](C)[C@H](N)C(=O)N[C@@H](Cc1ccccc1)C(=O)N[C@@H](CCSC)C(N)=O [IFM-amide] (H-Ile-Phe-Met-NH2) the “membrane potentials at which block is effective, compared with KIFMK” value ([1]; compare FIGS. 3 and 8) was “effective sodium channel blocker at much more negative membrane potentials than KIFMK”, the “blocking activity compared with IFM free acid or acetyl IFM free acid” value ([1]; experiments like those in Example 6) was “increased blocking activity” and the “dependence of inhibition of sodium channels” value [1] was “voltage-sensitive blocking”. For the same compound, the sodium channel blocking [1] was “blocking of the sodium channel”, the sodium channel blocking ([1]; listed as IFM amide) was “very effective sodium channel blocker” and the “dependence of inhibition of sodium channels” value ([1]; listed as IFM amide) was “voltage- and frequency-dependent”.
With CC[C@H](C)[C@H](NC(=O)[C@H](CCCCN)NC(C)=O)C(=O)N[C@@H](Cc1ccccc1)C(=O)N[C@@H](CCSC)C(=O)N[C@@H](CCCCN)C(N)=O [KIFMK, acetyl-KIFMK-amide] the “time to appearance of tail currents after peptide diffusion into the cell” value ([2]; 1 mM peptide in backfilled electrode) was ≤ 10 min, the “reduction (inhibition) of sodium currents in response to frequent depolarizing pulses” value ([2]; 1 mM peptide in electrode, 10 Hz pulses, after 15 min perfusion/cycling) was “substantial level of inhibition; also recorded: substantially reduced” and the “channel block by 10 Hz pulses given at 100 mV” value ([2]; 1 mM peptide, FIG. 3) was “completely blocked”. For the same compound, the “reduction in sodium current when cell membranes not depolarized frequently” value ([2]; 1 mM peptide, closed channels) was “Little reduction”, the “blockage of currents generated in response to 10 Hz pulses at positive voltages” value ([2]; 1 mM peptide, greater than 0 mV) was “substantial” and the “block of rapidly cycling type IIA sodium channels over the entire voltage range” value ([2]; FIG. 3) was “inhibited”. The “inhibition of sodium currents within 4 minutes of cycling” value ([2]; FIG. 2A, relative to control recording without peptide) was “insignificant level of inhibition”, the “character of the inhibitory effect on the sodium channel” value ([2]; combined results of Example 1) was “strong and voltage- and frequency-dependent” and the “time to steady-state level of inhibition” value ([3]; 1 mM peptide) was “less than 2 ms”. The “course and extent of induced inactivation” value ([3]; 1 mM, compared with wild-type channel function) was “rapid but incomplete”, the “inactivation of mutant (F1489Q) sodium channels” value [3] was “restore inactivation; also recorded: successfully inactivated” and the “macroscopic sodium current elicited by depolarizing test pulse to 0 mV” value [4] was “decayed with a time course faster than that of controls”. The “tail currents elicited by repolarization pulse” value [4] was “rose to a peak and then decayed much more slowly than in controls; also recorded: significant tail currents” and the “initial rate of sodium channel inactivation in presence of α-scorpion toxin” value [5] was “significantly accelerated; also recorded: partially restore inactivation activity”.
Ac-DIFMT-NH2 [acetyl-DIFMT-amide] was tested, and the “Inhibition of Na+ channels” value (Na+ channels) was “ineffective”.
“Ac-KIQMK-NH2 [KIQMK, acetyl-KIQMK-amide, reference compound]” was tested, and the “block of rapidly cycling type IIA sodium channels over the entire voltage range” value ([2]; FIG. 3) was “inactive; also recorded: did not block”, the “inactivation of mutant (F1489Q) sodium channels” value [3] was “without effect; also recorded: did not” and the “macroscopic sodium current elicited by depolarizing test pulse to 0 mV” value [4] was “no significant effect”. The “tail currents elicited by repolarization pulse” value [4] was “no significant effect; also recorded: no significant gating currents” and the “initial rate of sodium channel inactivation in presence of α-scorpion toxin” value [5] was “no effect”.
